The source of these data is US11845805B2, “Bispecific antibody against CD3 and CD20 in combination therapy for treating diffuse large B-cell lymphoma” (GENMAB A/S, priority 2020, dated 2023).

The test system of one series is T cells. In words: T cell viability after 16 hours pre-incubation with CHOP components. The class given is cell-based.
In series [1] the test system is CD20-expressing Raji-luc tumor cells. Particulars: even in the presence of an excess of IgG1-RTX-FEAR (rituximab variant with inert Fc domain); cited from earlier work.
The subject of series [2] is primary DLBCL and follicular lymphoma patient biopsies. Particulars: biopsies taken a certain amount of time after administration of an anti-CD20 antibody; cited from earlier work.
[3] abbreviates: T cells pretreated 16 hours with the CHOP component.

Read-outs that look alike come from different tables or passages of the source.

Take `O=P1(N(CCCl)CCCl)NCCCO1` (stereo not drawn) [cyclophosphamide, 2H-1,3,2-Oxazaphosphorin-2-amine, N,N-bis(2-chloroethyl)tetrahydro-, 2-oxide]: in the series with T cells, the T cell viability entry is “did not impact T cell viability”.
Regarding `COc1cccc2c1C(=O)c1c(O)c3c(c(O)c1C2=O)C[C@@](O)(C(=O)CO)C[C@@H]3O[C@H]1C[C@H](N)[C@H](O)[C@H](C)O1` [doxorubicin], the T cell viability entry in the series with T cells (setting [3]) is “reduction in T cell viability”.
For the molecule `C[C@]12C=CC(=O)C=C1CC[C@@H]1[C@@H]2C(=O)C[C@@]2(C)[C@H]1CC[C@]2(O)C(=O)CO` [prednisone, 17,21-dihydroxypregna-1,4-diene-3,11,20-trione], in the series on T cells (setting [3]), the T cell viability result is reported as “did not impact T cell viability”.
The same measure, in the same setting: in the case of `CC[C@]1(O)C[C@H]2CN(CCc3c([nH]c4ccccc34)[C@@](C(=O)OC)(c3cc4c(cc3OC)N(C=O)[C@H]3[C@@](O)(C(=O)OC)[C@H](OC(C)=O)[C@]5(CC)C=CCN6CC[C@]43[C@@H]65)C2)C1` [vincristine] it was “did not impact T cell viability”.
On to “epcoritamab: IgG1 bispecific CD3×CD20 antibody; heavy/light chain pairs SEQ ID NOs: 24/25 and 26/27; CAS 2134641-34-0”, for which, in series [1], the “tumor growth in the xenograft model” value is “effectively reduce tumor growth”. For the same molecule, in series [2], the “T-cell-mediated cytotoxicity in patient biopsies” value is “induced T-cell-mediated cytotoxicity”.
